According to PubChem BioAssay (NCI):
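In this assay, cells in 96-well plates receive the compound at five concentrations for 48 hours. Endpoints are linearly interpolated between the surrounding concentrations. At the TGI there is no net growth.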

Tests used:
Experiment in all cases: NCI tumour cell line growth inhibition, 48 h
DLD-1 colon = system: DLD-1 colon
DMS 114 small cell lung = system: DMS 114 small cell lung
DMS 273 small cell lung = system: DMS 273 small cell lung
HCC-2998 colon = system: HCC-2998 colon
HOP-92 NSCLC = system: HOP-92 NSCLC
LXFL 529 NSCLC = system: LXFL 529 NSCLC
M19-MEL melanoma = system: M19-MEL melanoma
OVCAR-8 ovarian = system: OVCAR-8 ovarian
SN12C renal = system: SN12C renal
SNB-78 CNS = system: SNB-78 CNS
U251 CNS = system: U251 CNS
XF 498 CNS = system: XF 498 CNS
A498 renal = system: A498 renal
KM20L2 colon = system: KM20L2 colon
BT-549 breast = system: BT-549 breast

| Structure (SMILES) | TGI (DLD-1 colon) [µM] | TGI (DMS 114 small cell lung) [µM] | TGI (DMS 273 small cell lung) [µM] | TGI (HCC-2998 colon) [µM] | TGI (HOP-92 NSCLC) [µM] | TGI (LXFL 529 NSCLC) [µM] | TGI (M19-MEL melanoma) [µM] | TGI (OVCAR-8 ovarian) [µM] | TGI (SN12C renal) [µM] | TGI (SNB-78 CNS) [µM] | TGI (U251 CNS) [µM] | TGI (XF 498 CNS) [µM] | TGI (A498 renal) [µM] | TGI (KM20L2 colon) [µM] | TGI (BT-549 breast) [µM] |
| --- | --- | --- | --- | --- | --- | --- | --- | --- | --- | --- | --- | --- | --- | --- | --- |
| Cc1ccc(S(=O)(=O)c2c(N)n(CCN(C)C)c3nc4ccccc4nc23)cc1 | > 100 | > 100 | > 100 | > 100 | > 100 | > 100 | > 100 | > 100 | > 100 | > 100 | > 100 | > 100 | – | – | – |
| Cc1ccccc1N=NC(C(=O)c1ccccc1)C(=O)c1ccccc1 | > 100 | 50.7 | 62.3 | > 100 | 46.4 | > 100 | 42.5 | > 100 | 58 | – | > 100 | 55.1 | > 100 | 70.7 | – |
| Cc1cc(Cl)ccc1C1OC(=O)c2c1ccc1ccccc21 (stereo unspecified) | > 100 | – | > 100 | > 100 | > 100 | > 100 | > 100 | > 100 | > 100 | – | > 100 | > 100 | > 100 | > 100 | – |
| NC(=O)c1cccc([C@@H]2O[C@H](CO)[C@@H](O)[C@H]2O)c1 | 35.9 | 32.7 | 22.9 | > 87.6 | > 69.6 | – | 60.7 | 9.55 | 80 | 24.4 | 32.4 | 7 | > 100 | > 94.1 | 43.4 |
| Cc1cc(N(CCC#N)CCC#N)ccc1C=Nc1ccc(C(=O)NN2C(=O)/C(=C/c3ccc(N(CCC#N)CCC#N)cc3)N=C2c2cc([N+](=O)[O-])ccc2Cl)cc1 | > 100 | > 100 | > 100 | > 100 | > 100 | > 100 | > 100 | > 100 | > 100 | > 100 | > 100 | > 100 | > 100 | > 100 | – |
| CC(CCCOC(c1ccccc1)(c1ccccc1)c1ccccc1)OC(=O)Nc1ccccc1 (stereo unspecified) | 27.1 | 24.5 | 29.3 | 27.3 | 21.7 | 26 | 28.3 | 27.1 | 24.4 | 31.9 | 26.8 | 28.1 | – | 19.8 | – |
| COC(=O)c1ccc(NCc2cc(O)ccc2O)cc1 | 40.8 | 8.04 | > 54.8 | 29.5 | 29.1 | 17.9 | 33.7 | 40.1 | 41.2 | 52.1 | 24.5 | 9.63 | 29.7 | > 72.7 | 2.63 |
| COc1ccc(CCNCCCC2c3ccccc3-c3ccccc32)cc1OC | 30.5 | 20.3 | 21.2 | 3.88 | 18.2 | 27.5 | 24.5 | 41.8 | 28.7 | 32.1 | 26.2 | 28.2 | 19.5 | 12.4 | 35.6 |
| CC(C)(C)S(=O)OC12CC3CC(CC(C3)C1)C2 (stereo unspecified) | – | > 100 | > 100 | – | – | > 100 | > 100 | > 100 | > 100 | > 100 | > 100 | > 100 | – | > 100 | – |
| CC(=O)C1=CCC2c3[nH]c4ccccc4c3CCN2C1 (stereo unspecified) | > 100 | – | > 100 | > 100 | > 100 | > 100 | > 100 | > 100 | > 100 | > 100 | > 100 | > 100 | > 100 | 46.2 | – |
| COc1ccc2c(c1)CCC(OS(=O)(=O)CC13CCC(CC1=O)C3(C)C)C2=O (stereo unspecified) | > 100 | 73.3 | 58.4 | 50.9 | 93.2 | > 100 | > 100 | 38.6 | 35.2 | – | 43.1 | 93.9 | 39.1 | 37.8 | – |
| CCOC(OC1=C(C#N)CCCC1)C(C)[Se]c1ccccc1 (stereo unspecified) | > 100 | 15.4 | 33.7 | > 100 | 67.3 | > 100 | 96.5 | 63.9 | 89.9 | > 100 | 32 | 57 | > 100 | > 100 | – |
| S=c1[nH]nc(NNc2ccccc2)n1Nc1ccccc1 | – | – | – | > 100 | > 79.9 | – | – | > 100 | > 100 | – | > 83.9 | – | > 100 | – | > 100 |
| CC(=O)ON(C(C)=O)c1ccc(-c2nc3ccccc3s2)cc1C | – | – | – | > 100 | > 100 | – | – | > 100 | > 100 | – | > 100 | – | 16.9 | – | > 100 |
| COc1ccc(CCNC(=O)[C@H]2CCCC[C@@H]2CCO)cc1OC | – | – | – | > 100 | > 100 | – | – | > 100 | > 100 | – | > 100 | – | > 100 | – | > 100 |
| C[N+](C)=c1nc(N2CCc3ccccc3C2)ss1 | > 100 | > 100 | > 100 | > 100 | – | > 100 | > 100 | > 100 | > 100 | > 100 | > 100 | – | > 100 | > 100 | – |
| COc1ccc(C(=O)Nc2ccc3oc(-c4ccccc4)nc3c2)cc1 | – | – | – | > 100 | > 100 | – | – | 88.5 | > 100 | – | > 100 | – | > 100 | – | > 100 |
| CC(=O)O[C@@H](C1C[C@@H](C)[C@H]2[C@@](O)(O1)[C@H](O)[C@@]1(C)C3=CC[C@H]4C(C)(C)[C@@H](OC5OCC(O)C(O)C5O)CC[C@@]45C[C@@]35CC[C@]21C)C(C)(C)O (stereo partly specified) | – | – | – | 27.7 | 60.5 | – | – | > 100 | 54.8 | – | 36 | – | 63 | – | 80.8 |
| COc1ccc(N2C(=O)CC(c3c[nH]c4ncccc34)C2=O)cc1 (stereo unspecified) | – | – | – | > 100 | 36 | – | – | 42.4 | 35.2 | – | > 100 | – | > 100 | – | 37.2 |
| O=c1[nH]c2c(c(=O)[nH]1)SSC2 | – | – | – | 30.5 | 10.7 | – | – | 10.2 | 7.95 | – | 30.1 | – | 52 | – | 6.65 |
| NCc1cc(O)c(O)c(O)c1 | > 100 | > 100 | > 100 | – | > 100 | > 100 | > 100 | > 100 | > 100 | > 100 | > 100 | > 100 | > 100 | > 100 | – |
| CN(C)Cc1cc(N=Nc2ccc(Cl)cc2)ccc1OC(=O)c1ccccc1 | – | – | – | 31 | 11.1 | – | – | 34.4 | 28.2 | – | 29.4 | – | 31.5 | – | 47.8 |
| CC1OC(OC2C(Oc3cc(O)c4c(c3)O[C@H](c3ccc(O)cc3)CC4=O)OC(CO)C(O)C2O)C(O)C(O)C1O (stereo partly specified) | – | – | – | > 100 | > 100 | – | – | > 100 | > 100 | – | > 100 | – | > 100 | – | > 100 |
